# In article PMC9934367, “Functional impact of subunit composition and compensation on Drosophila melanogaster nicotinic receptors–targets of neonicotinoids” (PLOS Genetics, 2023):
# Test system: D. melanogaster nAChRs
# Test: Comparison of agonist activity between nAChRs expressed in X. laevis oocytes (one-way ANOVA, Kruskal-Wallis)
# Assay type: cell-based
# Method: We minimised the use of X. laevis according to the UK Animals (Scientific Procedures) Act, 1986. […] Oocytes were defolliculated after collagenase treatment in Ca^2+-free standard oocyte saline (Ca^2+-free SOS). cRNAs of the nAChR subunits and co-factors mixed at a concentration of 0.1 mg/mL was injected into oocytes at a volume of 50 nL. Then the oocytes were incubated in the incubation medium (SOS supplemented with sodium pyruvate (Nacalai Tesque, #13058–12), penicillin-streptomycin (MilliporeSigma, #P4333), gentamycin (Nacalai Tesque, #16672–04), and 4% horse serum (Thermo Fisher Scientific, #26050–070) for 3−4 days prior to electrophysiology.
# Each defolliculated X. laevis oocyte was secured in a Perspex recording chamber and perfused with the standard oocyte saline (SOS) containing 0.5 μM atropine (SOSA) at a flow rate of 7−10 mL/min [48]. Two glass electrodes filled with 2 M KCl were impaled into each oocyte and the membrane potential was clamped at -100 mV. […] The peak amplitude of the response was measured and analysed by pCLAMP (Molecular Devices, USA).
# Y=Imax/1+10^(logEC50‐X)nH
# Where Y is the normalised response, X is log[ligand (M)], EC50 is the half maximal concentration (M), Imax is the maximum normalised response and nH is the Hill coefficient.
# Prism software was employed for the statistical analyses. […] One-way ANOVA was used to analyse the differences of the ligand agonist activity in terms of pEC50 on the various nAChRs expressed in X. laevis as well as data obtained with D. melanogaster larvae and adults.
# [1] = Dα1/Dβ1/Dβ2 vs. Dα1/Dα3/Dβ1/Dβ2
# [2] = Dα1/Dβ1/Dβ2 vs. Dα2/Dα3/Dβ1/Dβ2
# [3] = Dα1/Dβ1 vs. Dα1/Dα2/Dα3/Dβ1/Dβ2
# [4] = Dα2/Dα3/Dβ1/Dβ2 vs. Dα1/Dα2/Dα3/Dβ1/Dβ2
# [5] = Dα2/Dα3/Dβ1 vs. Dα1/Dα2/Dα3/Dβ1
# [6] = Dα2/Dα3/Dβ1 vs. Dα1/Dα2/Dα3/Dβ1/Dβ2
# [7] = Dα2/Dα3/Dβ1 vs. Dα1/Dα2/Dβ1/Dβ2
# [8] = Dα2/Dα3/Dβ1 vs. Dα1/Dα3/Dβ1/Dβ2
# [9] = Dα2/Dα3/Dβ1 vs. Dα2/Dα3/Dβ1/Dβ2
# [10] = Dα3/Dβ1/Dβ2 vs. Dα1/Dα2/Dα3/Dβ1/Dβ2
# [11] = Dα3/Dβ1/Dβ2 vs. Dα1/Dα2/Dβ1/Dβ2
# [12] = Dα3/Dβ1/Dβ2 vs. Dα1/Dα3/Dβ1/Dβ2
# [13] = Dα3/Dβ1/Dβ2 vs. Dα2/Dα3/Dβ1/Dβ2
# [14] = Dα3/Dβ1 vs. Dα1/Dα2/Dα3/Dβ1/Dβ2
structure (smiles),measurement,setting,value
"CN/C(=N\[N+](=O)[O-])NCc1cnc(Cl)s1 [Clothianidin, clothianidin]","Difference of Imax values, nAChRs compared",[1],-0.324
same,"Difference of pEC50 values, nAChRs compared",[1],-0.76
same,"Difference of Imax values, nAChRs compared",[2],-0.274
same,"Difference of pEC50 values, nAChRs compared",[2],-0.65
same,"Difference of Imax values, nAChRs compared",Dα1/Dβ1/Dβ2 vs. Dα3/Dβ1/Dβ2,-0.132
same,"Difference of pEC50 values, nAChRs compared",Dα1/Dβ1/Dβ2 vs. Dα3/Dβ1/Dβ2,-0.82
same,"Difference of Imax values, nAChRs compared",Dα1/Dβ1 vs. Dα1/Dα2/Dα3/Dβ1,-0.309
same,"Difference of pEC50 values, nAChRs compared",Dα1/Dβ1 vs. Dα1/Dα2/Dα3/Dβ1,0.58
same,"Difference of Imax values, nAChRs compared",[3],-0.304
same,"Difference of pEC50 values, nAChRs compared",[3],0.54
same,"Difference of Imax values, nAChRs compared",Dα1/Dβ1 vs. Dα1/Dα2/Dβ1,-0.191
same,"Difference of pEC50 values, nAChRs compared",Dα1/Dβ1 vs. Dα1/Dα2/Dβ1,2.06
same,"Difference of Imax values, nAChRs compared",Dα1/Dβ1 vs. Dα1/Dα2/Dβ1/Dβ2,-0.292
same,"Difference of pEC50 values, nAChRs compared",Dα1/Dβ1 vs. Dα1/Dα2/Dβ1/Dβ2,0.82
same,"Difference of Imax values, nAChRs compared",Dα1/Dβ1 vs. Dα1/Dα3/Dβ1,-0.119
same,"Difference of pEC50 values, nAChRs compared",Dα1/Dβ1 vs. Dα1/Dα3/Dβ1,-0.07
same,"Difference of Imax values, nAChRs compared",Dα1/Dβ1 vs. Dα1/Dα3/Dβ1/Dβ2,-0.176
same,"Difference of pEC50 values, nAChRs compared",Dα1/Dβ1 vs. Dα1/Dα3/Dβ1/Dβ2,-0.27
same,"Difference of Imax values, nAChRs compared",Dα1/Dβ1 vs. Dα1/Dβ1/Dβ2,0.148
same,"Difference of pEC50 values, nAChRs compared",Dα1/Dβ1 vs. Dα1/Dβ1/Dβ2,0.49
same,"Difference of Imax values, nAChRs compared",Dα1/Dβ1 vs. Dα2/Dα3/Dβ1,-0.374
same,"Difference of pEC50 values, nAChRs compared",Dα1/Dβ1 vs. Dα2/Dα3/Dβ1,0.32
same,"Difference of Imax values, nAChRs compared",Dα1/Dβ1 vs. Dα2/Dα3/Dβ1/Dβ2,-0.126
same,"Difference of pEC50 values, nAChRs compared",Dα1/Dβ1 vs. Dα2/Dα3/Dβ1/Dβ2,-0.16
same,"Difference of Imax values, nAChRs compared",Dα1/Dβ1 vs. Dα3/Dβ1,-0.183
same,"Difference of pEC50 values, nAChRs compared",Dα1/Dβ1 vs. Dα3/Dβ1,-0.41
same,"Difference of Imax values, nAChRs compared",Dα1/Dβ1 vs. Dα3/Dβ1/Dβ2,0.016
same,"Difference of pEC50 values, nAChRs compared",Dα1/Dβ1 vs. Dα3/Dβ1/Dβ2,-0.33
same,"Difference of Imax values, nAChRs compared",[4],-0.178
same,"Difference of pEC50 values, nAChRs compared",[4],0.70
same,"Difference of Imax values, nAChRs compared",[5],0.065
same,"Difference of pEC50 values, nAChRs compared",[5],0.26
same,"Difference of Imax values, nAChRs compared",[6],0.070
same,"Difference of pEC50 values, nAChRs compared",[6],0.22
same,"Difference of Imax values, nAChRs compared",[7],0.082
same,"Difference of pEC50 values, nAChRs compared",[7],0.50
same,"Difference of Imax values, nAChRs compared",[8],0.198
same,"Difference of pEC50 values, nAChRs compared",[8],-0.59
same,"Difference of Imax values, nAChRs compared",Dα2/Dα3/Dβ1 vs. Dα1/Dβ1/Dβ2,0.522
same,"Difference of pEC50 values, nAChRs compared",Dα2/Dα3/Dβ1 vs. Dα1/Dβ1/Dβ2,0.17
same,"Difference of Imax values, nAChRs compared",[9],0.248
same,"Difference of pEC50 values, nAChRs compared",[9],-0.48
same,"Difference of Imax values, nAChRs compared",Dα2/Dα3/Dβ1 vs. Dα3/Dβ1/Dβ2,0.390
same,"Difference of pEC50 values, nAChRs compared",Dα2/Dα3/Dβ1 vs. Dα3/Dβ1/Dβ2,-0.65
same,"Difference of Imax values, nAChRs compared",[10],-0.320
same,"Difference of pEC50 values, nAChRs compared",[10],0.87
same,"Difference of Imax values, nAChRs compared",[11],-0.308
same,"Difference of pEC50 values, nAChRs compared",[11],1.15
same,"Difference of Imax values, nAChRs compared",[12],-0.192
same,"Difference of pEC50 values, nAChRs compared",[12],0.06
same,"Difference of Imax values, nAChRs compared",[13],-0.142
same,"Difference of pEC50 values, nAChRs compared",[13],0.17
same,"Difference of Imax values, nAChRs compared",Dα3/Dβ1 vs. Dα1/Dα2/Dα3/Dβ1,-0.126
same,"Difference of pEC50 values, nAChRs compared",Dα3/Dβ1 vs. Dα1/Dα2/Dα3/Dβ1,0.99
same,"Difference of Imax values, nAChRs compared",[14],-0.121
same,"Difference of pEC50 values, nAChRs compared",[14],0.95
same,"Difference of Imax values, nAChRs compared",Dα3/Dβ1 vs. Dα1/Dα2/Dβ1,-0.008
same,"Difference of pEC50 values, nAChRs compared",Dα3/Dβ1 vs. Dα1/Dα2/Dβ1,2.47
same,"Difference of Imax values, nAChRs compared",Dα3/Dβ1 vs. Dα1/Dα2/Dβ1/Dβ2,-0.109
same,"Difference of pEC50 values, nAChRs compared",Dα3/Dβ1 vs. Dα1/Dα2/Dβ1/Dβ2,1.23
same,"Difference of Imax values, nAChRs compared",Dα3/Dβ1 vs. Dα1/Dα3/Dβ1,0.064
same,"Difference of pEC50 values, nAChRs compared",Dα3/Dβ1 vs. Dα1/Dα3/Dβ1,0.34
same,"Difference of Imax values, nAChRs compared",Dα3/Dβ1 vs. Dα1/Dα3/Dβ1/Dβ2,0.007
same,"Difference of pEC50 values, nAChRs compared",Dα3/Dβ1 vs. Dα1/Dα3/Dβ1/Dβ2,0.14
same,"Difference of Imax values, nAChRs compared",Dα3/Dβ1 vs. Dα1/Dβ1/Dβ2,0.331
same,"Difference of pEC50 values, nAChRs compared",Dα3/Dβ1 vs. Dα1/Dβ1/Dβ2,0.90
same,"Difference of Imax values, nAChRs compared",Dα3/Dβ1 vs. Dα2/Dα3/Dβ1,-0.191
same,"Difference of pEC50 values, nAChRs compared",Dα3/Dβ1 vs. Dα2/Dα3/Dβ1,0.73
same,"Difference of Imax values, nAChRs compared",Dα3/Dβ1 vs. Dα2/Dα3/Dβ1/Dβ2,0.057
same,"Difference of pEC50 values, nAChRs compared",Dα3/Dβ1 vs. Dα2/Dα3/Dβ1/Dβ2,0.25
same,"Difference of Imax values, nAChRs compared",Dα3/Dβ1 vs. Dα3/Dβ1/Dβ2,0.199
same,"Difference of pEC50 values, nAChRs compared",Dα3/Dβ1 vs. Dα3/Dβ1/Dβ2,0.08
